Experimental data: patent publication US20220088016A1, “CANCER TREATMENT USING MULTI-TARGETED KINASE INHIBITOR IN COMBINATION OF PROTEIN KINASE BIOMARKERS” (ZHEJIANG CROWNMAB BIOTECH CO. LTD., priority 2019, published 2022)
Where “and” joins values, the source holds several entries; their conditions need not be identical. Equal entries are not always repeated.

What was measured:
STK33 = STK33 (Homo sapiens, UniProt Q9BYT3); assay: Kinase profiling; type: binding; details: read-out: % Ctrl @ 1000 nM
Sequence of STK33 (Q9BYT3 whole entry): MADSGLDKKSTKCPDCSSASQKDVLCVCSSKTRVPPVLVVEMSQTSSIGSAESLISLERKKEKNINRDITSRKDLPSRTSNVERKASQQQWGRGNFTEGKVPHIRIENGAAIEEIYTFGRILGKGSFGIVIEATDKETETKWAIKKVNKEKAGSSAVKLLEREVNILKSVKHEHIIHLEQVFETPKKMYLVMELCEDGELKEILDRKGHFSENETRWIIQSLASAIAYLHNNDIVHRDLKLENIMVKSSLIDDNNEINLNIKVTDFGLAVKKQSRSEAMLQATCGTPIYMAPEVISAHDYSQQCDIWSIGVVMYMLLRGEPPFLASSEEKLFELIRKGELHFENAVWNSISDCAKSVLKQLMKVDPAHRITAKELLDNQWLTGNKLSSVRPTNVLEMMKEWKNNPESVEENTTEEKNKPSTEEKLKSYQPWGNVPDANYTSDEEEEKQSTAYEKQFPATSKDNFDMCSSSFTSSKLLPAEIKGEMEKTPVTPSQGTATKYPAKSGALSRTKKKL

[1] = molecular target: RSK2 (Kin.Dom.1-N-terminal) (Homo sapiens, UniProt P51812); assay: Kinase profiling; type: binding; details: read-out: % Ctrl @ 1000 nM
Sequence of RSK2 (Kin.Dom.1-N-terminal) (P51812 68-327 limits assumed): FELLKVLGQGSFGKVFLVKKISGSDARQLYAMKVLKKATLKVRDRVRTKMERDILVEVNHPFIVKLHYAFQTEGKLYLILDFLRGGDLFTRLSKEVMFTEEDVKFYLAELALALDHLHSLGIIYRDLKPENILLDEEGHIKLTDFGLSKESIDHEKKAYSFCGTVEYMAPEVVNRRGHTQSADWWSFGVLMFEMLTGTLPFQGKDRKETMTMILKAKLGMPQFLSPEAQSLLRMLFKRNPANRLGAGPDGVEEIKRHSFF

IRAK4 = IRAK4 (Homo sapiens, UniProt Q9NWZ3); assay: Kinase profiling; type: binding; details: read-out: % Ctrl @ 1000 nM
Sequence of IRAK4 (Q9NWZ3 whole entry): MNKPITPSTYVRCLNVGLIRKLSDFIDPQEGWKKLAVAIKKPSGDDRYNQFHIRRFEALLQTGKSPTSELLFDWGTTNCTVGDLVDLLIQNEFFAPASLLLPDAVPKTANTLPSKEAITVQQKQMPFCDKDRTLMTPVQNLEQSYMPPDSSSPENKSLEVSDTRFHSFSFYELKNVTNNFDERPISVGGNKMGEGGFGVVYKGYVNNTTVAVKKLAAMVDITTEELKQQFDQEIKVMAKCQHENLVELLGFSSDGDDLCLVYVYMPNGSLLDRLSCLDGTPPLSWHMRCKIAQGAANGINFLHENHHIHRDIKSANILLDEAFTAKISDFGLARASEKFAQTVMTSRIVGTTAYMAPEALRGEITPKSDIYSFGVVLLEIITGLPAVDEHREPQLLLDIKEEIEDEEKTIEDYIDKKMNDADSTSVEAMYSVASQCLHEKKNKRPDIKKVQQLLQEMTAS

FLT3 (N841I) = FLT3 (N841I) (Homo sapiens, UniProt P36888, N841I); assay: Kinase profiling; type: binding; details: read-out: % Ctrl @ 1000 nM
PLK3 = PLK3 (Homo sapiens, UniProt Q9H4B4); assay: Kinase profiling; type: binding; details: read-out: % Ctrl @ 1000 nM
[2] = molecular target: EGFR (L747-T751del, Sins) (Homo sapiens, UniProt P00533, DEL747-750/T751S); assay: Kinase profiling; type: binding; details: read-out: % Ctrl @ 1000 nM
Sequence of EGFR (L747-T751del, Sins) (P00533 with tags, fused parts or gaps DEL747-750/T751S limits assumed): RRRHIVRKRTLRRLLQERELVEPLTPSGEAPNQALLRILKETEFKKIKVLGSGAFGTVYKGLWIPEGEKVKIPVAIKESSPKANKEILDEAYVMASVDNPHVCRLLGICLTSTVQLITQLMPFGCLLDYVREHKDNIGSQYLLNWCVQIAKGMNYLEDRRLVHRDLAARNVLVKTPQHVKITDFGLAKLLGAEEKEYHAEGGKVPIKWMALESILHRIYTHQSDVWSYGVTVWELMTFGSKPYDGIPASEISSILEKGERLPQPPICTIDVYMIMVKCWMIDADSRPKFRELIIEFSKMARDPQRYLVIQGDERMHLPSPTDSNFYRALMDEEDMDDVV

SYK = SYK (Homo sapiens, UniProt P43405); assay: Kinase profiling; type: binding; details: read-out: % Ctrl @ 1000 nM
TRKA = TRKA (Homo sapiens, UniProt P04629); assay: Kinase profiling; type: binding; details: read-out: % Ctrl @ 1000 nM
VEGFR2 = VEGFR2 (Homo sapiens, UniProt P35968); assay: Kinase profiling; type: binding; details: read-out: % Ctrl @ 1000 nM
Sequence of VEGFR2 (P35968 20-1356): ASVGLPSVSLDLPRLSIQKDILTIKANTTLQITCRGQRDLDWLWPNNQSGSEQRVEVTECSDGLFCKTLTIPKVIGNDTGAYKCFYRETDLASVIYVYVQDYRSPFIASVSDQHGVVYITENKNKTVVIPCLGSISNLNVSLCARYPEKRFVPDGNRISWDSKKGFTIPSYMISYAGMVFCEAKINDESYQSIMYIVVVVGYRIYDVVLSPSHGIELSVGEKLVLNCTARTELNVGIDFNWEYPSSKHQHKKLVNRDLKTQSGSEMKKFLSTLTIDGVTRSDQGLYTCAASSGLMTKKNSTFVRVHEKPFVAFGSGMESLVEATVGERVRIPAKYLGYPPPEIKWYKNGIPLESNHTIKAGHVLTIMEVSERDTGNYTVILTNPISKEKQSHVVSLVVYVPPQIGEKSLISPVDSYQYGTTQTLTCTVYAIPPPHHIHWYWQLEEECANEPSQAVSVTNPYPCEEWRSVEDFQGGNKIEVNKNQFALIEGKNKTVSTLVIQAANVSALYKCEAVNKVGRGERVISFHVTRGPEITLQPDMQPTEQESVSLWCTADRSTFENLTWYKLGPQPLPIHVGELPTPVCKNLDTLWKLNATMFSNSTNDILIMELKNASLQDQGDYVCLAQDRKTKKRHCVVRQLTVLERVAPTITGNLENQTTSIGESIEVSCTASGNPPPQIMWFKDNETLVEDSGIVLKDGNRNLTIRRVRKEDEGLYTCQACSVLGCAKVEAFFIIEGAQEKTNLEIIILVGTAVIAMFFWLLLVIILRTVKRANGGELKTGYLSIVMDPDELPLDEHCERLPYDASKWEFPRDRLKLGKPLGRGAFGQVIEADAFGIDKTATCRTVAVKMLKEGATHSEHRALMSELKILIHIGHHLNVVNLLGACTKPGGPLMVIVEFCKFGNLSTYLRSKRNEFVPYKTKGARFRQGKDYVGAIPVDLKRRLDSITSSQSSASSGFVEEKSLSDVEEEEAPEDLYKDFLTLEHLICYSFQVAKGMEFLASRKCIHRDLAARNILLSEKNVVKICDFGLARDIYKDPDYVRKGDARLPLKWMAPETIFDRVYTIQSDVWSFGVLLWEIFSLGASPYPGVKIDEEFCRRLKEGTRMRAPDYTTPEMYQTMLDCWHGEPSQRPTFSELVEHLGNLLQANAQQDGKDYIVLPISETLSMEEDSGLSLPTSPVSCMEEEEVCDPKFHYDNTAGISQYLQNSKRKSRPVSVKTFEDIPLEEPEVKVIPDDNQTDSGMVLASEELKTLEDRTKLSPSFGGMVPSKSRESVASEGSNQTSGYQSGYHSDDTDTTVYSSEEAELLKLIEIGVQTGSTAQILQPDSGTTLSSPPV

MAP4K2 = MAP4K2 (Homo sapiens, UniProt Q12851); assay: Kinase profiling; type: binding; details: read-out: % Ctrl @ 1000 nM
PRKG2 = PRKG2 (Homo sapiens, UniProt Q13237); assay: Kinase profiling; type: binding; details: read-out: % Ctrl @ 1000 nM
Sequence of PRKG2 (Q13237 whole entry): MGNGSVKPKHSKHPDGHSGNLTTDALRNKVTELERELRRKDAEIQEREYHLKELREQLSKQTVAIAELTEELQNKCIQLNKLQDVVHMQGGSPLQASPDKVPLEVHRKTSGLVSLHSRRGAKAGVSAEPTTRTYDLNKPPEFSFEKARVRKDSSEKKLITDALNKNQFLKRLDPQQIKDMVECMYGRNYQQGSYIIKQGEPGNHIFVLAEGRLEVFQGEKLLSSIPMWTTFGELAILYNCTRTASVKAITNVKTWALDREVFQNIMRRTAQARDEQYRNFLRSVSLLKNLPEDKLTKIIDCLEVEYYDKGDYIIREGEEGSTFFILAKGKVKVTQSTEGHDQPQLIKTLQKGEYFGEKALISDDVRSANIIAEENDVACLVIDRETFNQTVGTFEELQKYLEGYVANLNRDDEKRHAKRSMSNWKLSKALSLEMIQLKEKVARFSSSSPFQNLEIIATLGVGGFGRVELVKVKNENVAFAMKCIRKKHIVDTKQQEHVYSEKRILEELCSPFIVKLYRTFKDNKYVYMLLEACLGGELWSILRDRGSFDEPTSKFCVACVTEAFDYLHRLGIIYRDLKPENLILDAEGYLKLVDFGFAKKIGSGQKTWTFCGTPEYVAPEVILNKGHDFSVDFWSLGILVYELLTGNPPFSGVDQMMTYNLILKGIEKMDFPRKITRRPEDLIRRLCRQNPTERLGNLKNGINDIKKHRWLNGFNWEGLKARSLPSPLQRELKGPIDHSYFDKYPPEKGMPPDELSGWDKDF

FGFR3 (G697C) = FGFR3 (G697C) (Homo sapiens, UniProt P22607, G697C); assay: Kinase profiling; type: binding; details: read-out: % Ctrl @ 1000 nM
Sequence of FGFR3 (G697C) (P22607 23-806 G697C): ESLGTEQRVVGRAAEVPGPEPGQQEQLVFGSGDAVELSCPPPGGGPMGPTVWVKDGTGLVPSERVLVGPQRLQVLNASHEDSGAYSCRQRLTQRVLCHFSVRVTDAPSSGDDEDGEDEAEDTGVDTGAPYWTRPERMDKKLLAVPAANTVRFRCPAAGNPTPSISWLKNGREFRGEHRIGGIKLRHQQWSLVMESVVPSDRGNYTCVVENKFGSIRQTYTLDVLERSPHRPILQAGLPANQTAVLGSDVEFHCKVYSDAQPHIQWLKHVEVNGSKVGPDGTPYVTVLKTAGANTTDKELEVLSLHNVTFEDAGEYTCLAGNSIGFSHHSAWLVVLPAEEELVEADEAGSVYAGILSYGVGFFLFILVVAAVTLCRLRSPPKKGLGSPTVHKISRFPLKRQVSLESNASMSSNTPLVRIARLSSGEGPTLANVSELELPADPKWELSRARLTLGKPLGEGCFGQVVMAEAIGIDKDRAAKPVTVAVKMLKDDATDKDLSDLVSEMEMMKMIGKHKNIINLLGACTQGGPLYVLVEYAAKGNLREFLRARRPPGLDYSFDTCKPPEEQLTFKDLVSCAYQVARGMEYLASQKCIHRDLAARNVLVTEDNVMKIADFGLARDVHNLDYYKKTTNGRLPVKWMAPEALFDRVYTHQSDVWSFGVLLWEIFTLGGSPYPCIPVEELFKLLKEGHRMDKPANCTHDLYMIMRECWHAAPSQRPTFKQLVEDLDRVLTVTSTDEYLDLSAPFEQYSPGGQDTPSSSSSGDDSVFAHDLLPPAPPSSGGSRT

NEK4 = molecular target: T1, NEK4 (Homo sapiens, UniProt P51957); assay: Kinase profiling; type: binding; details: read-out: % Ctrl @ 1000 nM
T1 construct: T7 phage fusion (said for most assays); made in house

FGFR4 = FGFR4 (Homo sapiens, UniProt P22455); assay: Kinase profiling; type: binding; details: read-out: % Ctrl @ 1000 nM
[3] = molecular target: ABL1 (Y253F)-phosphorylated (Homo sapiens, UniProt P00519, Y253F); assay: Kinase profiling; type: binding; details: read-out: % Ctrl @ 1000 nM
TYRO3 = TYRO3 (Homo sapiens, UniProt Q06418); assay: Kinase profiling; type: binding; details: read-out: % Ctrl @ 1000 nM
TEC = TEC (Homo sapiens, UniProt P42680); assay: Kinase profiling; type: binding; details: read-out: % Ctrl @ 1000 nM
MEK1 = molecular target: T2, MEK1 (Homo sapiens, UniProt Q02750); assay: Kinase profiling; type: binding; details: read-out: % Ctrl @ 1000 nM
T2 construct: T7 phage fusion (stated for most kinases of the panel only); made in house; host or cells: T7 phage in E. coli (BL21-derived) or HEK-293 cells

MC-38 tumor = assay: Subcutaneous MC-38 murine colon cancer model; type: in vivo, mouse; details: 20 mg/kg first 11 days, then 10 mg/kg
Experimental: The MC-38 tumor cells were maintained in vitro with RPMI1640 medium supplemented with 10% fetal bovine serum at 37° C. in an atmosphere of 5% CO2 in air. Each mouse was inoculated subcutaneously after shaving at the right flank region with MC-38 tumor cells (1×10e6) in 0.1 mL of PBS for tumor development. The randomization started when the mean tumor size reached approximately 100 mm^3. Group 1 mice were treated vehicle and group 2 mice were treated 20 mg/kg CBT-102 at first 11 days and reduced to 10 mg/kg afterwards.

YSK1 = YSK1 (Homo sapiens, UniProt O00506); assay: Kinase profiling; type: binding; details: read-out: % Ctrl @ 1000 nM
PKAC-beta = PKAC-beta (Homo sapiens, UniProt P22694); assay: Kinase profiling; type: binding; details: read-out: % Ctrl @ 1000 nM
BMX = BMX (Homo sapiens, UniProt P51813); assay: Kinase profiling; type: binding; details: read-out: % Ctrl @ 1000 nM
MET = molecular target: T3, MET (Homo sapiens, UniProt P08581); assay: Kinase profiling; type: binding; details: read-out: % Ctrl @ 1000 nM
T3 construct: T7 phage fusion (stated for most kinases of the panel only); made in house; host or cells: T7 phage in E. coli (BL21-derived) or HEK-293 cells

SgK110 = SgK110 (Homo sapiens, UniProt P0C264); assay: Kinase profiling; type: binding; details: read-out: % Ctrl @ 1000 nM
HIPK3 = HIPK3 (Homo sapiens, UniProt Q9H422); assay: Kinase profiling; type: binding; details: read-out: % Ctrl @ 1000 nM
GRK7 = GRK7 (Homo sapiens, UniProt Q8WTQ7); assay: Kinase profiling; type: binding; details: read-out: % Ctrl @ 1000 nM
NDR2 = molecular target: T4, NDR2 (Homo sapiens, UniProt Q9Y2H1); assay: Kinase profiling; type: binding; details: read-out: % Ctrl @ 1000 nM
T4 construct: T7 phage fusion (said for most assays); made in house

PAK6 = PAK6 (Homo sapiens, UniProt Q9NQU5); assay: Kinase profiling; type: binding; details: read-out: % Ctrl @ 1000 nM
EPHB6 = EPHB6 (Homo sapiens, UniProt O15197); assay: Kinase profiling; type: binding; details: read-out: % Ctrl @ 1000 nM
DMPK2 = DMPK2 (Homo sapiens, UniProt Q6DT37); assay: Kinase profiling; type: binding; details: read-out: % Ctrl @ 1000 nM
KIT (V559D, T670I) = KIT (V559D, T670I) (Homo sapiens, UniProt P10721, T670I/V559D); assay: Kinase profiling; type: binding; details: read-out: % Ctrl @ 1000 nM
PIM3 = PIM3 (Homo sapiens, UniProt Q86V86); assay: Kinase profiling; type: binding; details: read-out: % Ctrl @ 1000 nM
IRAK3 = IRAK3 (Homo sapiens, UniProt Q9Y616); assay: Kinase profiling; type: binding; details: read-out: % Ctrl @ 1000 nM
Sequence of IRAK3 (Q9Y616 whole entry): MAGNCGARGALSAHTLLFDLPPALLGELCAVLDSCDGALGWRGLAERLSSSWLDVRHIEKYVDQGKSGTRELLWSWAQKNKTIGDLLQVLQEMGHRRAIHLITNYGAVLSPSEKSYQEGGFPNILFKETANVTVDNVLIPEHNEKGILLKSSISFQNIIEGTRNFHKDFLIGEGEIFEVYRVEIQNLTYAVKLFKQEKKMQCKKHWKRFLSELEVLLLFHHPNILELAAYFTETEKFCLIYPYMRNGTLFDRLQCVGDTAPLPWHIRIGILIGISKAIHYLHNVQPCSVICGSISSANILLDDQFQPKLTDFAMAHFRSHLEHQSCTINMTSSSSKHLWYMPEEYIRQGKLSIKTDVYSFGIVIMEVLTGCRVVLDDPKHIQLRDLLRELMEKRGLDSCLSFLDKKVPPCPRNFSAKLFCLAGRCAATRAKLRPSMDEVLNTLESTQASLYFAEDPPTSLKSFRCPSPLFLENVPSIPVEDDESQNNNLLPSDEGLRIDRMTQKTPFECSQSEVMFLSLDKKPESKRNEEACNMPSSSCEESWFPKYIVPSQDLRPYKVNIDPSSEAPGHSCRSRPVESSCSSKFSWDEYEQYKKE

KIT (V559D) = KIT (V559D) (Homo sapiens, UniProt P10721, V559D); assay: Kinase profiling; type: binding; details: read-out: % Ctrl @ 1000 nM
MLK3 = molecular target: T5, MLK3 (Homo sapiens, UniProt Q16584); assay: Kinase profiling; type: binding; details: read-out: % Ctrl @ 1000 nM
T5 construct: T7 phage fusion (stated for most kinases of the panel only); made in house; host or cells: T7 phage in E. coli (BL21-derived) or HEK-293 cells

Compound: Cc1cc(Oc2cc(NC(=O)C3CC3)ncn2)ccc1NC(=O)Nc1ccc(Cl)c(C(F)(F)F)c1 [CBT-102]
- remaining activity at 1 µM (STK33): 63%
- remaining activity at 1 µM [1]: 97%
- remaining activity at 1 µM (IRAK4): 93%
- remaining activity at 1 µM (FLT3 (N841I)): 0%
- remaining activity at 1 µM (PLK3): 97%
- remaining activity at 1 µM [2]: 88%
- remaining activity at 1 µM (SYK): 100%
- remaining activity at 1 µM (TRKA): 74%
- remaining activity at 1 µM (VEGFR2): 1.4%
- remaining activity at 1 µM (MAP4K2): 91%
- remaining activity at 1 µM (PRKG2): 91%
- remaining activity at 1 µM (FGFR3 (G697C)): 100%
- remaining activity at 1 µM (NEK4): 93%
- remaining activity at 1 µM (FGFR4): 92%
- remaining activity at 1 µM [3]: 57%
- remaining activity at 1 µM (TYRO3): 82%
- remaining activity at 1 µM (TEC): 92%
- remaining activity at 1 µM (MEK1): 83%
- Tumor Size on day34 (MC-38 tumor; Day34 (PG-D21)): 454.63 mm^3 and 454.63 ± 60.72 mm^3
- T/C (MC-38 tumor; day34): 20.09%
- TGI (MC-38 tumor; day34, vs vehicle): 79.91%
- remaining activity at 1 µM (YSK1): 100%
- remaining activity at 1 µM (PKAC-beta): 95%
- remaining activity at 1 µM (BMX): 90%
- remaining activity at 1 µM (MET): 80%
- remaining activity at 1 µM (SgK110): 98%
- remaining activity at 1 µM (HIPK3): 78%
- remaining activity at 1 µM (GRK7): 100%
- remaining activity at 1 µM (NDR2): 100%
- remaining activity at 1 µM (PAK6): 94%
- remaining activity at 1 µM (EPHB6): 14%
- remaining activity at 1 µM (DMPK2): 100%
- remaining activity at 1 µM (KIT (V559D, T670I)): 0.3%
- remaining activity at 1 µM (PIM3): 98%
- remaining activity at 1 µM (IRAK3): 100%
- remaining activity at 1 µM (KIT (V559D)): 0%
- remaining activity at 1 µM (MLK3): 92%
